Test system: anti-MAG IgM antibodies
Test: Competitive binding assay (modified anti-MAG ELISA): compounds compete with immobilized MAG for anti-MAG IgM antibodies of patient sera
Parameters: species or system human
Experimental: FIG. 1. Schematic representation of a competitive binding assay • (a) Incubation of MAG-coated plates with anti-MAG IgM (patient sera) and polymer 25. (b) Wash step. (c) Incubation with anti-human IgM antibody coupled to horseradish peroxidase. (d) Wash step. (e) Addition of tetramethylbenzidin (TMB) substrate. (f) Addition of acidic stop solution and measurement of the optical density.
The synthesized carbohydrate monomers (1 and 2) and the polymer 25 were tested in an established ELISA assay (Bühlmann Laboratories, Schonenbuch, Switzerland) applied for the diagnosis of anti-MAG neuropathy and for therapy control in clinic. The assay is used to determine serum concentration of anti-MAG IgM autoantibodies. The assay was modified to a competitive binding assay. The synthesized compounds and serum samples containing anti-MAG IgM antibodies are given into 96 well plates, coated with purified MAG from human brain. Immobilized MAG and the synthesized compounds compete for binding to the anti-MAG IgM antibodies. After a washing step MAG-bound IgM antibodies are detected with a horseradish peroxidase labeled antibody, followed by a colorimetric reaction. Successful competition of the compounds with MAG leads to a decrease in measured OD450 nm (optical density), because they block the binding sites of IgM antibodies, preventing them from binding to MAG. The principle of the assay is depicted in FIG. 1. For the evaluation of the compounds, four sera from different patients ([…]) with reported high anti-MAG IgM antibody titers were chosen. IgM antibody concentrations were determined for each serum in preliminary experiments. Serum dilutions with measured OD450 nm values around 1.0 were chosen for the assay, to be able to compare the measured IC50 values (half maximal inhibitory concentration) which are antibody concentration dependent. Serum dilutions: DP 1:2′500, KH 1:3,000, SJ 1:7,500, MK 1:23,000.
IC50 values of compound 1 were determined for all sera. Those of compound 2 were determined for serum MK with the highest antibody affinity for 1 and for serum SJ with the lowest antibody affinity for 1. The assay was repeated four times. From the received binding curves for each serum, the three best fitted were chosen and normalized for IC50 calculation. For curve generation of compound 2 an artificially high concentration point at 500 mM with 0% antibody binding was added because even at the highest concentration of 2 (50 mM) the inhibition of antibody binding was not 100%. The IC50 values for compound 2 are therefore to be considered as approximated values, although they changed only marginally upon addition of the high concentration point. Under the same assay conditions the carbohydrate polymer was tested with the sera KH, MK and SJ. The measurements were repeated at least three times. The three best fitted curves for each serum were chosen for IC50 calculation.
Sera of four patients (three men and one […]) were investigated. They all were tested positive for a monoclonal IgM gammopathy and were diagnosed with anti-MAG neuropathy at the University Hospital of Basel (Basel, Switzerland). Serum anti-MAG antibody titers were determined by an ELISA assay (Bühlmann Laboratories, Schonenbuch, Switzerland). Sera from two patients with a monoclonal IgM gammopathy and negative anti-MAG activity served as control. Use of sera was approved by the ethics committee of the University Hospital of Basel.
An anti-MAG ELISA kit (Bühlmann Laboratories, Schonenbuch, Switzerland) was used for the biological evaluation of compounds 1, 2 and 25. The 96 well plates coated with purified MAG from human brain were washed four times with washing buffer (300 μl/well) before adding the carbohydrate ligands in seven different concentrations (0.05-50 mM for the monomers 1 and 2 and 0.05-5,000 nM for the polymer 25), 25 μl/well. The patient sera containing anti-MAG IgM antibodies were added in the appropriate dilutions, 25 μl/well. […]

## COc1ccc(OC2OC(CO)C(O)C(OC3OC(C(=O)O)C(O)C(O)C3O)C2O)cc1 [Compound 2, 4-Methoxyphenyl (Sodium β-D-Glucopyranuronate)-(1→3)-β-D-Galactopyranoside]
Highest concentration, 50 mM
  inhibition of antibody binding: < 100%
Patient serum MK
  weaker binding to the unsulfated disaccharide (versus sulfated disaccharide 1): approximately 230 fold
Patient serum MK, approximated value, artificial point at 500 mM with 0% antibody binding added for curve fit
  IC50: 29000 ± 500 µM
Patient serum SJ
  lower binding affinity to the unsulfated disaccharide (versus sulfated disaccharide 1): 12.6 fold
Patient serum SJ, approximated value, artificial point at 500 mM with 0% antibody binding added for curve fit
  IC50: 10000 ± 1000 µM

## COc1ccc(OC2OC(CO)C(O)C(OC3OC(C(=O)O)C(O)C(OS(=O)(=O)O)C3O)C2O)cc1 [Compound 1, 4-Methoxyphenyl (Disodium-3-O-Sulfo-β-D-Glucopyranuronate)-(1→3)-β-D-Galacto-Pyranoside]
Patient serum DP (dilution 1:2′500), MAG-coated plates
  IC50: 536 ± 23.5 µM
Patient serum KH (dilution 1:3,000), MAG-coated plates
  IC50: 614 ± 20.1 µM
Patient serum MK (dilution 1:23,000), MAG-coated plates
  IC50: 124 ± 9.5 µM
Patient serum SJ (dilution 1:7,500), MAG-coated plates
  IC50: 793 ± 24 µM

Source: US11220523B2, “Carbohydrate ligands that bind to IgM antibodies against myelin-associated glycoprotein” (UNIVERSITÄT BASEL, priority 2014, dated 2022)
